Literature values, collected in paper PMC5889410, “Design and Biological Evaluation of Antifouling Dihydrostilbene Oxime Hybrids” (Marine Biotechnology (New York, N.y.), 2018).
≈ marks a conversion by molar mass, not a printed value.

Assays:
[1] = tested on: Vibrio proteolyticus; conditions: ref Hanssen et al. ([2014]); cited from earlier work
[2] = tested on: Pseudoalteromonas elyakovii; conditions: ref Hanssen et al. ([2014]); cited from earlier work
[3] = tested on: microalgae; design: method as in Hanssen et al. [2014]; conditions: ref Hanssen et al. [2014]; cited from earlier work
[4] = tested on: Vibrio aestuarianus; conditions: ref Hanssen et al. ([2014]); cited from earlier work
[5] = tested on: Porphyridium purpureum; conditions: ref Hanssen et al. ([2014]); cited from earlier work
[6] = tested on: Pleurochrysis roscoffensis; conditions: ref Hanssen et al. ([2014]); cited from earlier work
[7] = tested on: Vibrio harveyi; conditions: ref Hanssen et al. ([2014]); cited from earlier work
[8] = tested on: Halamphora coffeaeformis; conditions: ref Hanssen et al. ([2014]); cited from earlier work
[9] = tested on: Vibrio aestuarianus; conditions: ref Hanssen et al. ([2014]); cited from earlier work; remark: listed apart in the source
[10] = tested on: Vibrio carchariae; conditions: ref Hanssen et al. ([2014]); cited from earlier work
[11] = tested on: Halomonas aquamarina; conditions: ref Hanssen et al. ([2014]); cited from earlier work
[12] = tested on: Vibrio harveyi; conditions: ref Hanssen et al. ([2014]); cited from earlier work; remark: listed apart in the source
[13] = tested on: Halomonas aquamarina; conditions: ref Hanssen et al. ([2014]); cited from earlier work; remark: listed apart in the source
[14] = tested on: Pleurochrysis roscoffensis; conditions: ref Hanssen et al. ([2014]); cited from earlier work; remark: listed apart in the source
[15] = tested on: Balanus improvisus cyprid larvae; conditions: B. improvisus, ref Hanssen et al. ([2014]), cited from earlier work
[16] = tested on: Roseobacter litoralis; conditions: ref Hanssen et al. ([2014]); cited from earlier work
[17] = tested on: Vibrio proteolyticus; conditions: ref Hanssen et al. ([2014]); cited from earlier work; remark: listed apart in the source
[18] = tested on: Shewanella putrefaciens; conditions: ref Hanssen et al. ([2014]); cited from earlier work
[19] = tested on: Vibrio carchariae; conditions: ref Hanssen et al. ([2014]); cited from earlier work; remark: listed apart in the source
[20] = tested on: marine bacteria; conditions: panel of marine bacteria; ref Hanssen et al. [2014]; cited from earlier work
[21] = tested on: Halamphora coffeaeformis; conditions: ref Hanssen et al. ([2014]); cited from earlier work; remark: listed apart in the source
[22] = tested on: Cylindrotheca closterium; conditions: ref Hanssen et al. ([2014]); cited from earlier work
[23] = tested on: Vibrio natriegens; conditions: ref Hanssen et al. ([2014]); cited from earlier work
[24] = tested on: Cylindrotheca closterium; conditions: ref Hanssen et al. ([2014]); cited from earlier work; remark: listed apart in the source
[25] = tested on: Porphyridium purpureum; conditions: ref Hanssen et al. ([2014]); cited from earlier work; remark: listed apart in the source

**Q.** Which results are given for `COc1c(Br)cc(C/C(=N\O)C(=O)NCCc2c[nH]c(=N)[nH]2)cc1Br` [Ianthelline, ianthelline]?
**A.** MIC against the growth of marine bacteria, V.p. [1]: 10 µg/mL; MIC against the growth of marine bacteria, P.e. [2]: 1 µg/mL; antialgal activity, in words [3]: poor antialgal activity; MIC against the adhesion of marine bacteria, V.a. [4]: 0.1 µg/mL; MIC against the growth (G) of microalgae, P. purpureum [5]: > 10 µg/mL; MIC against the adhesion (A) of microalgae, P. roscoffensis [6]: > 10 µg/mL; MIC against the adhesion of marine bacteria, V.h. [7]: – (Not active at > 10 μg/mL); MIC against the growth (G) of microalgae, H. coffeaformis [8]: > 10 µg/mL; MIC against the growth of marine bacteria, V.a. [9]: 0.1 µg/mL; MIC against the adhesion of marine bacteria, V.c. [10]: – (Not active at > 10 μg/mL); MIC against the adhesion of marine bacteria, H.a. [11]: – (Not active at > 10 μg/mL); MIC against the growth of marine bacteria, V.h. [12]: 10 µg/mL; MIC against the growth of marine bacteria, H.a. [13]: – (Not active at > 10 μg/mL); MIC against the growth (G) of microalgae, P. roscoffensis [14]: 10 µg/mL; IC50 (cyprid settlement inhibition) [15]: 3.0 µg/mL (≈ 6.31 µM); Toxicity (%) (dead cyprids) ([15]; reported at 5 μg/mL): 10.0%; MIC against the growth of marine bacteria, R.l. [16]: 1 µg/mL; MIC against the adhesion of marine bacteria, V.p. [17]: – (Not active at > 10 μg/mL); MIC against the growth of marine bacteria, S.p. [18]: 0.1 µg/mL; MIC against the growth of marine bacteria, V.c. [19]: – (Not active at > 10 μg/mL); Inhibition of bacterial adhesion, in general [20]: not effective; MIC against the adhesion (A) of microalgae, H. coffeaformis [21]: > 10 µg/mL; MIC against the adhesion (A) of microalgae, C. closterium [22]: > 10 µg/mL; MIC against the growth of marine bacteria, V.n. [23]: – (Not active at > 10 μg/mL); MIC against the growth (G) of microalgae, C. closterium [24]: > 10 µg/mL; MIC against the adhesion (A) of microalgae, P. purpureum [25]: > 10 µg/mL
